In ChEMBL document CHEMBL1144690, “Isolation of cytotoxic metabolites from targeted peruvian amazonian medicinal plants” (2008) one finds MIC data, which are given here for 1 compound.

The test system of this experiment is Mycobacterium tuberculosis. Description: Antimicrobial activity against multidrug resistant Mycobacterium tuberculosis. The experiment is classed as functional.

Each structure is given as a SMILES string. In brackets after ≈: the same amount, converted by molar mass.

A word on the MIC: it is the lowest concentration found to suppress growth. Read a high MIC as a need for much substance. `C/C=C1/CN2CC[C@@]34c5ccccc5N5/C=C6/[C@H]7C[C@@H]8N(CC[C@@]89c8ccccc8N(/C=C(/[C@H]1C[C@H]23)[C@H]54)[C@@H]69)C/C7=C/C` [BISNORDIHYDROTOXIFERINE] yielded an MIC of 6.25 mg/L (≈ 11.3 µM).
